Patent US9181305B2, “Exendin-4 peptide analogues” (SANOFI, priority 2012, dated 2015)
*1 amine or outer side, *2 acyl side, *3 side chain or, on linkers, in order; H or OH if unused. Where a SMILES comes first, the peptide text is derived from it. Side-chain parts run from the residue outwards. [ ]: non-standard residue; d: D form. The star is where a group is joined. γGlu = O=C(O)[C@H](CCC(=O)[*:2])N[*:1]; Palmitoyl = CCCCCCCCCCCCCCCC(=O)*; Aib = CC(C)(N)C(=O)O

Target: T1, human GLP-1 receptor (hGLP-1 R) (Homo sapiens, UniProt P43220)
T1 construct: expressed in transfected cells; host or cells: HEK-293
T1 sequence (P43220 24-463): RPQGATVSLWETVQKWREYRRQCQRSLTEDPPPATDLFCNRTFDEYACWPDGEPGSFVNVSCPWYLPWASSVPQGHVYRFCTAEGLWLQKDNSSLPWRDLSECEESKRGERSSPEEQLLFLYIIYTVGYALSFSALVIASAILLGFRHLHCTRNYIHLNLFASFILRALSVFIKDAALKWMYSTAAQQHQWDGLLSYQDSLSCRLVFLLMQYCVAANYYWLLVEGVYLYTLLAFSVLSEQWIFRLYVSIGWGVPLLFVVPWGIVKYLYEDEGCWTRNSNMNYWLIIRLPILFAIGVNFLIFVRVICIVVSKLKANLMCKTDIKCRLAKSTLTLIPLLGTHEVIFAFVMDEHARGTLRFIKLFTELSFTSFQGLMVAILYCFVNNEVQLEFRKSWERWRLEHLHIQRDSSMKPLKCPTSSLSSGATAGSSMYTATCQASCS
Assay: cAMP response (HTRF) of HEK-293 cells stably expressing human GLP-1 receptor
Assay type: cell-based
Details: HEK-293 cells expressing human GLP-1 receptor, cAMP formation
Description: cAMP content of cells was determined using a kit from Cisbio Corp. (cat. no. 62AM4PEC) based on HTRF (Homogenous Time Resolved Fluorescence). For preparation, cells were split into T175 culture flasks and grown overnight to near confluency in medium (DMEM/10% FBS). Medium was then removed and cells washed with PBS lacking calcium and magnesium, followed by proteinase treatment with accutase (Sigma-Aldrich cat. no. A6964). Detached cells were washed and resuspended in assay buffer (1×HBSS; 20 mM HEPES, 0.1% BSA, 2 mM IBMX) and cellular density determined. […] For measurement, 25 μl of test compound in assay buffer was added to the wells, followed by incubation for 30 minutes at room temperature.

| Compound | EC50 |
| --- | --- |
| CCCCCCCCCCCCCCCC(=O)N[C@@H](CCC(=O)NCCCC[C@H](NC(=O)[C@@H]1CCCN1C(=O)[C@@H]1CCCN1C(=O)[C@@H]1CCCN1C(=O)[C@H](C)NC(=O)CNC(=O)[C@H](CO)NC(=O)[C@H](CO)NC(=O)[C@@H]1CCCN1C(=O)CNC(=O)CNC(=O)[C@H](CC(N)=O)NC(=O)[C@H](CCCCN)NC(=O)[C@H](CC(C)C)NC(=O)[C@H](Cc1c[nH]c2ccccc12)NC(=O)[C@H](CCC(=O)O)NC(=O)[C@@H](NC(=O)[C@H](Cc1ccccc1)NC(=O)[C@H](CC(=O)O)NC(=O)[C@H](CCC(N)=O)NC(=O)[C@H](C)NC(=O)[C@H](CCCNC(=N)N)NC(=O)[C@H](CCCNC(=N)N)NC(=O)[C@H](CO)NC(=O)[C@H](CC(=O)O)NC(=O)[C@H](CCSC)NC(=O)[C@H](CCC(N)=O)NC(=O)[C@H](CCCCN)NC(=O)[C@H](CO)NC(=O)[C@H](CC(C)C)NC(=O)[C@H](CC(=O)O)NC(=O)[C@H](CO)NC(=O)[C@@H](NC(=O)[C@H](Cc1ccccc1)NC(=O)[C@@H](NC(=O)CNC(=O)[C@H](CCC(N)=O)NC(=O)[C@H](CO)NC(=O)[C@@H](N)Cc1c[nH]cn1)[C@@H](C)O)[C@@H](C)O)[C@@H](C)CC)C(N)=O)C(=O)O [(6)] | 3.1 pM |
| CC[C@H](C)[C@H](NC(=O)[C@H](Cc1ccccc1)NC(=O)[C@H](CC(=O)O)NC(=O)[C@H](CCCCN)NC(=O)[C@H](C)NC(=O)[C@H](CCCNC(=N)N)NC(=O)[C@H](CCCNC(=N)N)NC(=O)[C@H](CCC(=O)O)NC(=O)[C@H](CCC(=O)O)NC(=O)[C@H](CCSC)NC(=O)[C@H](CCC(N)=O)NC(=O)[C@H](CCCCN)NC(=O)[C@H](CO)NC(=O)[C@H](CC(C)C)NC(=O)[C@H](CC(=O)O)NC(=O)[C@H](CO)NC(=O)[C@@H](NC(=O)[C@H](Cc1ccccc1)NC(=O)[C@@H](NC(=O)CNC(=O)[C@H](CCC(N)=O)NC(=O)[C@H](CO)NC(=O)[C@@H](N)Cc1c[nH]cn1)[C@@H](C)O)[C@@H](C)O)C(=O)N[C@@H](CCC(=O)O)C(=O)N[C@@H](Cc1c[nH]c2ccccc12)C(=O)N[C@@H](CC(C)C)C(=O)N[C@@H](CCCCN)C(=O)N[C@@H](CC(N)=O)C(=O)NCC(=O)NCC(=O)N1CCC[C@H]1C(=O)N[C@@H](CO)C(=O)N[C@@H](CO)C(=O)NCC(=O)N[C@@H](C)C(=O)N1CCC[C@H]1C(=O)N1CCC[C@H]1C(=O)N1CCC[C@H]1C(=O)N[C@@H](CO)C(N)=O [(16)] (H-HSQGTFTSDLSKQMEERRAKDFIEWLKNGGPSSGAPPPS-NH2) | 7.6 pM |
| CCCCCCCCCCCCCCCC(=O)NCCCC[C@H](NC(=O)[C@H](CO)NC(=O)[C@@H]1CCCN1C(=O)[C@@H]1CCCN1C(=O)[C@@H]1CCCN1C(=O)[C@H](C)NC(=O)CNC(=O)[C@H](CO)NC(=O)[C@H](CO)NC(=O)[C@@H]1CCCN1C(=O)CNC(=O)CNC(=O)[C@H](CC(N)=O)NC(=O)[C@H](CCCCN)NC(=O)[C@H](CC(C)C)NC(=O)[C@H](Cc1c[nH]c2ccccc12)NC(=O)[C@H](CCC(=O)O)NC(=O)[C@@H](NC(=O)[C@H](Cc1ccccc1)NC(=O)[C@H](CC(=O)O)NC(=O)[C@H](CCC(N)=O)NC(=O)[C@H](C)NC(=O)[C@H](CCCNC(=N)N)NC(=O)[C@H](CCCNC(=N)N)NC(=O)[C@H](CO)NC(=O)[C@H](CC(=O)O)NC(=O)[C@H](CCSC)NC(=O)[C@H](CCC(N)=O)NC(=O)[C@H](CCCCN)NC(=O)[C@H](CO)NC(=O)[C@H](CC(C)C)NC(=O)[C@H](CC(=O)O)NC(=O)[C@H](CO)NC(=O)[C@@H](NC(=O)[C@H](Cc1ccccc1)NC(=O)[C@@H](NC(=O)CNC(=O)[C@H](CCC(N)=O)NC(=O)[C@@H](CO)NC(=O)[C@@H](N)Cc1c[nH]cn1)[C@@H](C)O)[C@@H](C)O)[C@@H](C)CC)C(N)=O [(26)] | 9.7 pM |
| CC[C@H](C)[C@H](NC(=O)[C@H](Cc1ccccc1)NC(=O)[C@H](CC(=O)O)NC(=O)[C@H](CCC(N)=O)NC(=O)[C@H](C)NC(=O)[C@H](CCCNC(=N)N)NC(=O)[C@H](CCCNC(=N)N)NC(=O)[C@H](CO)NC(=O)[C@H](CC(=O)O)NC(=O)[C@H](CCSC)NC(=O)[C@H](CCC(N)=O)NC(=O)[C@H](CCCCN)NC(=O)[C@H](CO)NC(=O)[C@H](CC(C)C)NC(=O)[C@H](CC(=O)O)NC(=O)[C@H](CO)NC(=O)[C@@H](NC(=O)[C@H](Cc1ccccc1)NC(=O)[C@@H](NC(=O)CNC(=O)[C@H](CCC(N)=O)NC(=O)[C@H](C)NC(=O)[C@@H](N)Cc1c[nH]cn1)[C@@H](C)O)[C@@H](C)O)C(=O)N[C@@H](CCC(=O)O)C(=O)N[C@@H](Cc1c[nH]c2ccccc12)C(=O)N[C@@H](CC(C)C)C(=O)N[C@@H](CCCCN)C(=O)N[C@@H](CC(N)=O)C(=O)NCC(=O)NCC(=O)N1CCC[C@H]1C(=O)N[C@@H](CO)C(=O)N[C@@H](CO)C(=O)NCC(=O)N[C@@H](C)C(=O)N1CCC[C@H]1C(=O)N1CCC[C@H]1C(=O)N1CCC[C@H]1C(=O)N[C@@H](CO)C(N)=O [(39)] (H-HAQGTFTSDLSKQMDSRRAQDFIEWLKNGGPSSGAPPPS-NH2) | 4.6 pM |
| CCCCCCCCCCCCCCCC(=O)N[C@@H](CCC(=O)NCCCC[C@H](NC(=O)[C@@H]1CCCN1C(=O)[C@@H]1CCCN1C(=O)[C@@H]1CCCN1C(=O)[C@H](C)NC(=O)CNC(=O)[C@H](CO)NC(=O)[C@H](CO)NC(=O)[C@@H]1CCCN1C(=O)CNC(=O)CNC(=O)[C@H](CC(N)=O)NC(=O)[C@H](CCCCN)NC(=O)[C@H](CC(C)C)NC(=O)[C@H](Cc1c[nH]c2ccccc12)NC(=O)[C@H](CCC(=O)O)NC(=O)[C@@H](NC(=O)[C@H](Cc1ccccc1)NC(=O)[C@H](CC(=O)O)NC(=O)[C@H](CCC(N)=O)NC(=O)[C@H](C)NC(=O)[C@H](CCCNC(=N)N)NC(=O)[C@H](CCCNC(=N)N)NC(=O)[C@H](CO)NC(=O)[C@H](CC(=O)O)NC(=O)[C@H](CCSC)NC(=O)[C@H](CCC(N)=O)NC(=O)[C@H](CCCCN)NC(=O)[C@H](CO)NC(=O)[C@H](CC(C)C)NC(=O)[C@H](CC(=O)O)NC(=O)[C@H](CO)NC(=O)[C@@H](NC(=O)[C@H](Cc1ccccc1)NC(=O)[C@@H](NC(=O)CNC(=O)[C@H](CCC(N)=O)NC(=O)[C@@H](CO)NC(=O)[C@@H](N)Cc1c[nH]cn1)[C@@H](C)O)[C@@H](C)O)[C@@H](C)CC)C(N)=O)C(=O)O [(51)] | 5.8 pM |
| CCCCCCCCCCCCCCCC(=O)N[C@@H](CCC(=O)NCCCC[C@H](NC(=O)[C@@H]1CCCN1C(=O)[C@@H]1CCCN1C(=O)[C@@H]1CCCN1C(=O)[C@H](C)NC(=O)CNC(=O)[C@H](CO)NC(=O)[C@H](CO)NC(=O)[C@@H]1CCCN1C(=O)CNC(=O)CNC(=O)[C@H](CC(N)=O)NC(=O)[C@H](CCCCN)NC(=O)[C@H](CC(C)C)NC(=O)[C@H](Cc1c[nH]c2ccccc12)NC(=O)[C@H](CCC(=O)O)NC(=O)[C@@H](NC(=O)[C@H](Cc1ccccc1)NC(=O)[C@H](CC(=O)O)NC(=O)[C@H](CCC(N)=O)NC(=O)[C@H](C)NC(=O)[C@H](CCCNC(=N)N)NC(=O)[C@H](CCCNC(=N)N)NC(=O)[C@H](CO)NC(=O)[C@H](CC(=O)O)NC(=O)[C@H](CCSC)NC(=O)[C@H](CCC(N)=O)NC(=O)[C@H](CCCCN)NC(=O)[C@H](CO)NC(=O)[C@H](CC(C)C)NC(=O)[C@H](CC(=O)O)NC(=O)[C@H](CO)NC(=O)[C@@H](NC(=O)[C@H](Cc1ccccc1)NC(=O)[C@@H](NC(=O)CNC(=O)[C@H](CCC(N)=O)NC(=O)C(C)(C)NC(=O)[C@@H](N)Cc1c[nH]cn1)[C@@H](C)O)[C@@H](C)O)[C@@H](C)CC)C(N)=O)C(=O)O [(52)] (H-H[Aib]QGTFTSDLSKQMDSRRAQDFIEWLKNGGPSSGAPPPK([γGlu-Palmitoyl])-NH2) | 4.1 pM |
| CCCCCCCCCCCCCCCC(=O)N[C@@H](CCC(=O)NCCCC[C@H](NC(=O)[C@H](CO)NC(=O)[C@@H]1CCCN1C(=O)[C@@H]1CCCN1C(=O)[C@@H]1CCCN1C(=O)[C@H](C)NC(=O)CNC(=O)[C@H](CO)NC(=O)[C@H](CO)NC(=O)[C@@H]1CCCN1C(=O)CNC(=O)CNC(=O)[C@H](CC(N)=O)NC(=O)[C@H](CCCCN)NC(=O)[C@H](CC(C)C)NC(=O)[C@H](Cc1c[nH]c2ccccc12)NC(=O)[C@H](CCC(=O)O)NC(=O)[C@@H](NC(=O)[C@H](Cc1ccccc1)NC(=O)[C@H](CC(=O)O)NC(=O)[C@H](CCC(N)=O)NC(=O)[C@H](C)NC(=O)[C@H](CCCNC(=N)N)NC(=O)[C@H](CCCNC(=N)N)NC(=O)[C@H](CO)NC(=O)[C@H](CC(=O)O)NC(=O)[C@H](CCSC)NC(=O)[C@H](CCC(N)=O)NC(=O)[C@H](CCCCN)NC(=O)[C@H](CO)NC(=O)[C@H](CC(C)C)NC(=O)[C@H](CC(=O)O)NC(=O)[C@H](CO)NC(=O)[C@@H](NC(=O)[C@H](Cc1ccccc1)NC(=O)[C@@H](NC(=O)CNC(=O)[C@H](CCC(N)=O)NC(=O)C(C)(C)NC(=O)[C@@H](N)Cc1c[nH]cn1)[C@@H](C)O)[C@@H](C)O)[C@@H](C)CC)C(N)=O)C(=O)O [(59)] (H-H[Aib]QGTFTSDLSKQMDSRRAQDFIEWLKNGGPSSGAPPPSK([γGlu-Palmitoyl])-NH2) | 2.9 pM |
| CCCCCCCCCCCCCCCC(=O)N[C@@H](CCC(=O)NCCCC[C@H](NC(=O)[C@H](CO)NC(=O)[C@@H]1CCCN1C(=O)[C@@H]1CCCN1C(=O)[C@@H]1CCCN1C(=O)[C@H](C)NC(=O)CNC(=O)[C@H](CO)NC(=O)[C@H](CO)NC(=O)[C@@H]1CCCN1C(=O)CNC(=O)CNC(=O)[C@H](CC(N)=O)NC(=O)[C@H](CCCCN)NC(=O)[C@H](CC(C)C)NC(=O)[C@H](Cc1c[nH]c2ccccc12)NC(=O)[C@H](CCC(=O)O)NC(=O)[C@@H](NC(=O)[C@H](Cc1ccccc1)NC(=O)[C@H](CC(=O)O)NC(=O)[C@H](CCC(N)=O)NC(=O)[C@H](C)NC(=O)[C@H](CCCNC(=N)N)NC(=O)[C@H](CCCNC(=N)N)NC(=O)[C@H](CO)NC(=O)[C@H](CCC(=O)O)NC(=O)[C@H](CCSC)NC(=O)[C@H](CCC(N)=O)NC(=O)[C@H](CCCCN)NC(=O)[C@H](CO)NC(=O)[C@H](CC(C)C)NC(=O)[C@H](CC(=O)O)NC(=O)[C@H](CO)NC(=O)[C@@H](NC(=O)[C@H](Cc1ccccc1)NC(=O)[C@@H](NC(=O)CNC(=O)[C@H](CCC(N)=O)NC(=O)[C@@H](CO)NC(=O)[C@@H](N)Cc1c[nH]cn1)[C@@H](C)O)[C@@H](C)O)[C@@H](C)CC)C(N)=O)C(=O)O [(61)] (H-H[dS]QGTFTSDLSKQMESRRAQDFIEWLKNGGPSSGAPPPSK([γGlu-Palmitoyl])-NH2) | 4.2 pM |
